The nature of data set [1]: method code SF-AS, from DOI: 10.1023/a:1021720128725.
Experiment in data set [2]: not given
The source holds these as a separate data set.

Experiment in data set [3]: not given
The source holds these as a separate data set.

The nature of data set [4]: method code SF-HPLC, from DOI: 10.1021/js980008v, PMID: 9758683.
Experiment in data set [5]: not given
The source holds these as a separate data set.

Data set [6] is described as follows: method code SF, from ISBN: 9780444415486.
Experiment in data set [7]: not given
The source holds these as a separate data set.

Data set [8] in a line: method code SF, from ISBN: 9780815518525. The settings on record: pH 7.0.
Experiment in data set [9]: not given
This is another data set of the same source.

Data set [10] in a line: method code SF-GLC, from DOI: 10.1897/1552-8618(1989)8[499:dowpcf]2.0.co;2.
Data set [11] in a line: method code SF, from ISBN: 9780948404450.
Experiment in data set [12]: not given
This is another data set of the same source.

Experiment in data set [13]: not given
The source holds these as a separate data set.

Data set [14] in a line: method code SF-AS, from DOI: 10.2307/3574491, PMID: 940937. The settings on record: pH 7.4.
Data set [15] is described as follows: method code SF-HPLC, from DOI: 10.13422/j.cnki.syfjx.2013.03.051.
For data set [16] the following is noted: pH 6.0.
Experiment in data set [17]: not given
This is another data set of the same source.

What is called logP is a log measure of how a compound divides between an organic and an aqueous phase. Low readings indicate a more hydrophilic compound, high ones a more lipophilic compound. As usually defined, the logD is lipophilicity at a set pH, counting ionised and neutral species. The low end stands for a more hydrophilic compound, the high end for a more lipophilic compound.

In the case of `Nc1nc2c(ncn2COCCO)c(=O)[nH]1`, the log partition coefficient (logP) in [1] is -1.44.

On to `OCCOCCOCCOCCO`, for which the logP was -1.38.

With `c1ccc(Oc2cccc(-c3ccccc3)c2)cc1`, the logP was determined as 5.55.

In data set [2], `CCS(=O)CCSP(=O)(OC)OC` (stereo not given) yielded a lipophilicity (logP) of -0.74.

In turn, `CC(=O)Nc1cc(C(C)(C)C)c(O)cc1C` registered a log partition coefficient (logP) in [3] of 2.18.

In turn, `O=C1NC(c2ccccc2)(c2ccccc2)C(=O)N1CO` displayed a logP in data set [4] of 2.23.

For `O=C(O)c1ccccc1C(=O)Nc1cccc2ccccc12`, the logP in data set [5] was 3.

Regarding `CN1C(=O)OC(c2ccccc2)C1=O` (stereo not given), the log partition coefficient (logP) in data set [6] turned out to be 1.06.

On to `Oc1ccccc1`, for which the logP in data set [7] amounted to 1.6.

As for `CNC(=O)N(C)c1nnc(C(C)(C)C)s1`, the logD in data set [8] is 1.79.

In [1], `Cc1cn2c(=O)c3c(nc2[nH]1)N(COCCO)C(Br)N3` (stereo not given) displayed a logP of -0.11.

For `Cc1ccccc1/C=C/[N+](=O)[O-]`, the logP in data set [9] worked out at 2.63.

Compound `N#Cc1cc(Br)c(O)c(Br)c1` gave a log partition coefficient (logP) in data set [5] of 2.7.

In turn, `CCc1ccc2c(c1)C(=O)c1ccccc1C2=O` gave a logP in [10] of 4.37.

As to `CCS(=O)c1sc(C#N)c(Cl)c1C#N` (stereo not given), the logP in [11] stood at 2.54.

For the compound `O=C(O)c1c(O)cccc1O`, in data set [12], the logP came to 1.23.

As to `Cc1ccccc1C(=N)c1ccccc1C`, the logP in [3] worked out at 3.31.

Regarding `CSc1nc(NC(C)C)nc(NC(C)C)n1`, the lipophilicity (logP) in [13] stood at 3.36.

Regarding `CCCC(=O)OCN1C(=O)NC(c2ccccc2)(c2ccccc2)C1=O`, the logP in [4] amounted to 3.9.

In data set [14], `O=[N+]([O-])c1nccn1CC(O)CO` (stereo not given) gave a log distribution coefficient (logD) of -0.96.

`OCCN(CCO)CCO` yielded a logP of -1.32.

Compound `CC(C)(C)c1cn2c(=O)c3ncn(COCCO)c3nc2[nH]1` gave a log partition coefficient (logP) in data set [1] of 0.62.

Compound `Clc1cc(Cl)c(Cl)cc1Cl` displayed a logP in data set [10] of 4.6.

In the case of `O=C1C=CC[C@@H]2[C@H]3CCC[N+]4([O-])CCC[C@@H](CN12)[C@@H]34` (stereo not given in full), the logP in [15] was -0.44.

As to `CC(=O)[C@H]1CC[C@H]2[C@@H]3CCC4=CC(=O)CC[C@]4(C)[C@H]3CC[C@]12C`, the pH-dependent lipophilicity (logD) in data set [16] was 3.7.

Consider `Nc1ccccc1`, for which the logP in data set [17] is 1.08.

For the compound `CCCCNCCCC`, the logP came to 2.68.

In data set [4], `CC(=O)OCN1C(=O)NC(c2ccccc2)(c2ccccc2)C1=O` showed a logP of 2.8.

`COC(=O)CCn1c(C)cnc1[N+](=O)[O-]` had a log distribution coefficient (logD) in data set [14] of -0.25.

The compound `O=C1NC(=O)C(c2ccccc2)(c2ccccc2)N1` registered a logP in data set [4] of 2.21.

Source of the values: the SangsterLogP compilation.
